Values quoted from earlier work as cited in patent publication US12653950B2, “Predictive biological homeostasis” (priority 2020, dated 2026).

Experiments:
[1] = in vivo
NF-κB = details: pro-inflammatory signaling pathway involved in Lyme-induced inflammation
[2] = not given; remark: listed apart in the source
Borrelia burgdorferi = details: one animal study (Pothineni et al. 2020)

In the case of `Nc1nc2c(ncn2COCCO)c(=O)[nH]1` [Acyclovir], the “toxic side effects in the kidneys” value [1] is listed as “toxic side effects in the kidneys”.

In the case of `COc1cc(/C=C/C(=O)CC(=O)/C=C/c2ccc(O)c(OC)c2)ccc1O` [Curcumin], the “activation of NF-κB” value (NF-κB) is listed as “blocking the activation”.

For `O=c1c(O)c(-c2ccc(O)c(O)c2)oc2cc(O)cc(O)c12` [Quercetin], the solubility in water is listed as “poorly soluble” and the “stability in physiological systems” value [2] is listed as “unstable”.

In the case of `CC1(C)S[C@@H]2[C@H](NC(=O)[C@H](NC(=O)N3CCNC3=O)c3ccccc3)C(=O)N2[C@H]1C(=O)O` [azlocillin], the “killing of disease-causing bacteria Borrelia burgdorferi” value (Borrelia burgdorferi) is listed as “completely kills off”.
